Columns and labels:
Renca mouse tumour cells = assay: Tumour growth studies in Renca, a murine syngeneic renal carcinoma tumour model; format: in vivo; details: Balb/C mice, 0.3 mg/kg once a week p.o. on days 1, 8, 15; vs 0.5% methylcellulose; FIG. 9
Procedure: Experiments were conducted on female mice (Balb/C genotype, at least 5 weeks old). Renca mouse tumour cells (Cancer Chemother Pharmacol. 1995; 36 (1): 7-12) were kindly provided by Dr. T. Fujioka at Department of Urology, Iwate Medical University School of Medicine. Renca mouse tumour cells (5×10^4) were implanted subcutaneously in the flank of mice on day 0. Mice were treated with either drug vehicle (0.5% methylcellulose), the compound of Example 3 (0.3 mg/kg once a week) or the compound of Example 4 (3 mg/kg once a week) administered orally (p. o.) on days 1, 8, and 15. Tumour volumes were assessed at least twice weekly by bilateral vernier caliper measurements.
Tumour growth inhibition from the start of treatment was assessed by comparison of the differences in tumour growth rate between control and the compound of Example 3 treated groups, as shown in FIG. 9.
Tumour growth inhibition from the start of treatment was assessed by comparison of the differences in tumour growth rate between control and the compound of the Example 4 treated groups, as shown in FIG. 10.

hERG potassium channel = hERG potassium channel (Homo sapiens (Human), UniProt Q12809); assay: hERG Analysis - Method 2 (QPATCH HT, CHO-hERG cells); format: cell-based; details: half-maximal inhibition concentration, 22±2° C.
Procedure: The hERG potassium current was measured in a hERG-stably-expressing Chinese hamster ovary K1 (CHO) cells. The experiments were performed using an automated planar patch-clamp system QPATCH HT (Sophion Bioscience A/S). The application of pressure for forming gigaseals and whole-cell patch clamp configuration were established using the QPATCH assay software. Patch-clamp experiments were performed in voltage-clamp mode and whole-cell currents were recorded from individual cells. The following stimulation protocol was applied to investigate the effects of compounds on hERG potassium channel: The membrane potential was held at −80 mV and repetitively (every 15 s) depolarized to +20 mV for 5 s after the pulse to −50 mV for 20 ms served to define the baseline, followed by repolarizing step to −50 mV for 5 s to evaluate of the tail current amplitude. Experiments were conducted at room temperature (22±2° C.).
Effects of compounds were determined from cumulative applications of increasing 4 concentrations and calculated as percent of blocked current. The data points were fitted with Hill equation to calculate half-maximal inhibition concentrations. The test solution includes: Extracellular solution (mM): 2 mM of CaCl2, 1 mM of MgCl2, 10 mM of HEPES, 4 mM of KCl, 145 mM of NaCl, and 10 mM of Glucose; and Intracellular solution (mM): 5.4 mM of CaCl2, 1.8 mM of MgCl2, 10 mM of HEPES, 31 mM of KOH, 10 mM of EGTA, 120 mM of KCl, and 4 mM of ATP.

human TLR7 = human TLR7 (Homo sapiens (Human), UniProt Q9NYK1); assay: Human TLR7 assay (SEAP reporter in HEK293); format: cell-based; details: SEAP induction, overnight incubation at 37° C., 0.1% DMSO; read-out: TLR7 (pEC50) (converted)
Excerpt: Recombinant human TLR7 was stably expressed in a HEK293 cell line already stably expressing the pNiFty2-SEAP reporter plasmid; integration of the reporter gene was maintained by selection with the antibiotic zeocin. The most common variant sequence of human TLR7 (represented by the EMBL sequence AF240467) was cloned into the mammalian cell expression vector pUNO and transfected into this reporter cell-line. Transfectants with stable expression were selected using the antibiotic blasticidin. In this reporter cell-line, expression of secreted alkaline phosphatase (SEAP) is controlled by an NFkB/ELAM-1 composite promoter comprising five NFkB sites combined with the proximal ELAM-1 promoter. TLR signaling leads to the translocation of NFkB and activation of the promoter results in expression of the SEAP gene. TLR7-specific activation was assessed by determining the level of SEAP produced following overnight incubation of the cells at 37° C. with the standard compound in the presence of 0.1% (v/v) dimethylsulfoxide (DMSO). Concentration dependent induction of SEAP production by compounds was expressed as the concentration of compound which produced half of the maximal level of SEAP induction for that compound (EC50).

Chain of hERG potassium channel (Q12809 whole entry): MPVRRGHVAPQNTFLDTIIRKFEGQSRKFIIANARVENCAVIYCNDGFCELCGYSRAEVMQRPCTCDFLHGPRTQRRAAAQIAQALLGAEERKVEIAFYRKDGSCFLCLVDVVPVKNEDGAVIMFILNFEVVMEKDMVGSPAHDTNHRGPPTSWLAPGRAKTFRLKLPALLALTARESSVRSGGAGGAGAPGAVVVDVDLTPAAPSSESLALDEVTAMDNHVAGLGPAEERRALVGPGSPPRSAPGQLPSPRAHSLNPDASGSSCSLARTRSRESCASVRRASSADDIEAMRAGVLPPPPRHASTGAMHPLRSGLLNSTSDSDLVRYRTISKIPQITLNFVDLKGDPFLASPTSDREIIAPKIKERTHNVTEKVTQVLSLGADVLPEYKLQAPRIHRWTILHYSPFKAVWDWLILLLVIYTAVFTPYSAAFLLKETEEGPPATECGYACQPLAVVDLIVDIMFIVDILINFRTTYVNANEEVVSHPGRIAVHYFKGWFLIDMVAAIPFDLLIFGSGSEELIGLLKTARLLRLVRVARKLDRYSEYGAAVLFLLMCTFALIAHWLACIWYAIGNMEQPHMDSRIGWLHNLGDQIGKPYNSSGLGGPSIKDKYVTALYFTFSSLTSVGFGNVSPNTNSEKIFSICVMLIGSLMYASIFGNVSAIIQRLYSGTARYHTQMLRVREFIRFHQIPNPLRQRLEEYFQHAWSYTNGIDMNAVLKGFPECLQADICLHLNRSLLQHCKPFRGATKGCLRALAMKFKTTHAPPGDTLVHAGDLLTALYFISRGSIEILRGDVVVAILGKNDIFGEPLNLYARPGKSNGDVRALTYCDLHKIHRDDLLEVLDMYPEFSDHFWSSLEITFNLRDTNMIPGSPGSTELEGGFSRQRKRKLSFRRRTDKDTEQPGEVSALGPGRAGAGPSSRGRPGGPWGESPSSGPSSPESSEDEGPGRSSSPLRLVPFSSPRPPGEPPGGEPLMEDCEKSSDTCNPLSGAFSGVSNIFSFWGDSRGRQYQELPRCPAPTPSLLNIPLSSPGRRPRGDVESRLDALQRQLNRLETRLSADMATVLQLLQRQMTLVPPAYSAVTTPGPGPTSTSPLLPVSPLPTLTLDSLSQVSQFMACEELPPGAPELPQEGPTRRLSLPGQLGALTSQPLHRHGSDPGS
Chain of human TLR7 (Q9NYK1 27-1049): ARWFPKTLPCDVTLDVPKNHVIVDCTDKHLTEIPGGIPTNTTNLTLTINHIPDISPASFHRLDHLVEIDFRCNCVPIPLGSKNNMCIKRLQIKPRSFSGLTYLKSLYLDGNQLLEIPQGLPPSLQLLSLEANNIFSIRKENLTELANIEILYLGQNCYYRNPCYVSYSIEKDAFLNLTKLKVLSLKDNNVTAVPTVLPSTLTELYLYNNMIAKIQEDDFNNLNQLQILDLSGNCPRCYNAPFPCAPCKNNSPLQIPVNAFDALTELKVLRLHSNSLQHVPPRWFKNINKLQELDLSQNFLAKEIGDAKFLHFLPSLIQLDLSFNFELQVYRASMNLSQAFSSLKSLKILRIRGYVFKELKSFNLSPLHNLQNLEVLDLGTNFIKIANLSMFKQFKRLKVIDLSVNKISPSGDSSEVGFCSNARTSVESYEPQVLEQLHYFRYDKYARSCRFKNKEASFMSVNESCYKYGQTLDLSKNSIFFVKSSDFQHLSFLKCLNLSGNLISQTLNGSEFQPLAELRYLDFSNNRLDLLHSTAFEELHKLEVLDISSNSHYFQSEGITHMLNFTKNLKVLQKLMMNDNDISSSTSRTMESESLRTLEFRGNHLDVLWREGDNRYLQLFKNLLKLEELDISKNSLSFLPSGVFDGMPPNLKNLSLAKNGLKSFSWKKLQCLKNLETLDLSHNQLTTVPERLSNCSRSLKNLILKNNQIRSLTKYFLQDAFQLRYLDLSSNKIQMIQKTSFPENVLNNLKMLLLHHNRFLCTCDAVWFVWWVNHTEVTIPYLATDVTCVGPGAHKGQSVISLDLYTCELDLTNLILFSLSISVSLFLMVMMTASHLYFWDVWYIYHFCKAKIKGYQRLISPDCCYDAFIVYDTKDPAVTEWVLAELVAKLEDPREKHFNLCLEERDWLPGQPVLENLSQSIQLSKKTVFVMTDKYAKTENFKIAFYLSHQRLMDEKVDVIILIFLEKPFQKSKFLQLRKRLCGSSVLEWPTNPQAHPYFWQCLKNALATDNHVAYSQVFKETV

CCC[C@@H](CCO)Nc1nc(N)nc(C)c1Cc1ccc(CN(CC(=O)O)CC(F)F)cc1OC [Example 3, (S)-2-((4-((2-amino-4-(1-hydroxyhexan-3-ylamino)-6-methylpyrimidin-5-yl)methyl)-3-methoxybenzyl)(2,2-difluoroethyl)amino)acetic acid]
Tumour growth inhibition (Renca mouse tumour cells): inhibited tumour growth
IC50 (hERG potassium channel): > 10000 nM
EC50 (human TLR7): 79.4 nM
